Measured values published in patent US4992448A, “Benzocycloalkylaminopyridinamines and related compounds as topical antiinflammatory agents for the treatment of skin disorders” (Hoechst-Roussel Pharmaceuticals Inc., priority 1989, dated 1991).

Legend:
porcine pancreatic PLA2 = porcine pancreatic PLA2 (Sus scrofa, UniProt P00592); experiment: In Vitro Phospholipase A2 Assay (PLA2); assay type: biochemical; settings: 0.01 M test compound; porcine pancreatic PLA2 (3.2 units), pH 8.0, 37° C.
Procedure: In Vitro Phospholipase A2 Assay (PLA2) The ability of a compound to modulate PLA2 activity (clevage of ^14 -dipalmitoyl phosphotidylcholine at the 2-position to ^14 C-palmitic acid) was quantitated in this assay. […] The reaction was run at 37° C. in a shaking incubator. The reaction was quenched and an internal standard was added in order to determine sample recovery. The samples were loaded onto D18 columns, eluted with ethanol, and the radioactivity was then measured.

[1] = system: Phospholipase A2 -induced paw edema; experiment: Phospholipase A2-induced Paw Edema (PIPE); assay type: in vivo, male Wistar rats; settings: for PIPE (0.1 M), difference in edema vs. control: 0.1 M test compound injected with PLA2 (3 units/paw), subplantar, rat left hind paw, two hours post administration
Procedure: Phospholipase A2 -induced Paw Edema (PIPE) A2 -induced paw edema in male Wistar rats (100-125 g) was measured. PLA2 (3 units/paw) alone or with 0.1 M of the test compound was injected in the subplantar region of the rat left hind paw. Immediately subsequent to the injection and at two hours post administration the paw was immersed in a mercury bath, and paw displacement was measured on a recorder via a transducer. […] See Giessler, A. J. et. al., Agents and Actions, Vol. 10, Trends in Inflammation Research (1981), p. 195.

[2] = system: ear edema induced by topical application of TPA; experiment: TPA-Induced Ear Edema (TPAEE); assay type: in vivo, Female Swiss WEbster mice; settings: for TPAEE (10 μg): 10 μg/ear test compound topical, TPA 10 μg/ear, ear punch weight after five hours
Procedure: TPA-Induced Ear Edema (TPAEE) The purpose of this assay was to determine the ability of a topically-applied compound to prevent ear edema induced by topical application of TPA (phorbol 12/myristate acetate). Female Swiss WEbster mice topically received TPA (10μg/ear) on the right ear and vehicle on the left ear. The test compound (10μg/ear) was applied to both ears. After five hours, the animals were sacrificed and an ear punch (4 mm) was taken from each ear. The difference in right and left ear punch weights for each animal was determined to uses activity. […] See Yound, J. M. et. al., J. Invest.

Sequence of porcine pancreatic PLA2 (P00592 23-146): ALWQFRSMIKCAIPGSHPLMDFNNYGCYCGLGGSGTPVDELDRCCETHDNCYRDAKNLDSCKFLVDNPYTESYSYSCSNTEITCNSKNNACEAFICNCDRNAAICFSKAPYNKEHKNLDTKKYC

| SMILES | inhibition at 10000 µM (porcine pancreatic PLA2) [%] | PIPE (0.1 M), difference in edema vs. control [1] [%] | TPAEE (10 μg) [2] [%] | ED50 (PIPE standard) ([1]; standard, PLA2-induced rat paw edema) [M] | ED50 (TPAEE standard) ([2]; standard, TPA-induced mouse ear edema, topical) [μg/ear] |
| --- | --- | --- | --- | --- | --- |
| Nc1cnccc1N1CCc2ccccc21 [1-(3-Amino-4-pyridinyl)-2,3-dihydro-1H-indole] | 42 | -34 | -74 |  |  |
| Nc1cc[n+]([O-])cc1N1CCc2ccccc2C1 | 59 | -42 | -45 |  |  |
| C[C@]12CCC(=O)C=C1CC[C@@H]1[C@@H]2[C@@H](O)C[C@@]2(C)[C@H]1CC[C@]2(O)C(=O)CO [hydrocortisone, reference compound] |  |  |  | 0.46 | 47 |
| Nc1ccncc1N1CCc2ccccc21 [1-(4-Amino-3-pyridinyl)-2,3-dihydro-1H-indole] | 85 | -33 | -35 |  |  |
